Assays:
PIK3CA (human) [1] = biological target: PIK3CA (human) (UniProt P42336); experiment: Inhibition of PIK3CA Kinase Activity
PIK3CA (human) [2] = biological target: PIK3CA (human) (UniProt P42336); experiment: Inhibition of A2780 Cell Proliferation

Chain of PIK3CA (human) (P42336 whole entry, looked up): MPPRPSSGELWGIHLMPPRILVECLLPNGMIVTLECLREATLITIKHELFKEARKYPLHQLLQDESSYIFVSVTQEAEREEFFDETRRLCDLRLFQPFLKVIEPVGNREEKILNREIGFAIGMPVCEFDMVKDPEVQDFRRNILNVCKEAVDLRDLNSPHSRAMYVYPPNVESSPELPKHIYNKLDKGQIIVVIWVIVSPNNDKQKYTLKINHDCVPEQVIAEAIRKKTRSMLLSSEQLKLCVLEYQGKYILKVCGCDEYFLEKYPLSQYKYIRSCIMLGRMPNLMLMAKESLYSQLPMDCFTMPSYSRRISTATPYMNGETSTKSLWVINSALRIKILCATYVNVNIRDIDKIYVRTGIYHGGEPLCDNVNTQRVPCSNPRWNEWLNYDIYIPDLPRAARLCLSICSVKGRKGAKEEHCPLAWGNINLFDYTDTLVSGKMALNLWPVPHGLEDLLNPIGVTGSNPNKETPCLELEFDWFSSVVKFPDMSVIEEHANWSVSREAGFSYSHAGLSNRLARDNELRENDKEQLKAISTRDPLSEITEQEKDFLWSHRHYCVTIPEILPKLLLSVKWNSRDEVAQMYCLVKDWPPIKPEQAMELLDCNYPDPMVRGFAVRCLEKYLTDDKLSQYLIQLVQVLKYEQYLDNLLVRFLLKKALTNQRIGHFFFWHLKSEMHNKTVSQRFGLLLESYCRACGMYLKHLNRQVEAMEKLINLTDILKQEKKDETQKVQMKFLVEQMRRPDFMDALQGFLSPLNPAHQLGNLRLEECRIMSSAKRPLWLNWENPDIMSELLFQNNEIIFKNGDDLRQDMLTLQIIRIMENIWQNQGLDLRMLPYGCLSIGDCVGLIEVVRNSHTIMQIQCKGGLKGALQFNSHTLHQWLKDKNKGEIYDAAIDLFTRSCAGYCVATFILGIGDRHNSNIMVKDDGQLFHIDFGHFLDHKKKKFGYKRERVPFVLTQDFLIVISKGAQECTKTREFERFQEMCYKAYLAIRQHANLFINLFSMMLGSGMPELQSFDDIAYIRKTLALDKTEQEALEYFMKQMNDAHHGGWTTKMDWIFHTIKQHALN

Structure (SMILES)	IC50 (PIK3CA (human) [1]) [nM]	EC50 (PIK3CA (human) [2]) [nM]
Nc1ncc(-c2ccc3nc(NC(=O)CCCN4CCOCC4)cn3n2)cc1C(F)(F)F	< 1000	< 1000
Nc1ncc(-c2ccc3nc(NC(=O)[C@@H]4CCN4)cn3c2)cc1C(F)(F)F	< 1000	< 10000
Nc1ncc(-c2ccc3nc(NC(=O)CCCC(=O)O)cn3n2)cc1C(F)(F)F	< 1000	< 25000
CC(=O)Nc1nc2ccc(-c3cnc(N)c(F)c3)cc2s1	< 1000	< 10000
Nc1ncc(-c2ccc3nc(NC(=O)CO[C@H]4CCNC4)cn3n2)cc1C(F)(F)F	< 1000	< 1000
CC(=O)Nc1ccc(-c2c(NC(C)=O)nc3ccc(-c4cnc(N)c(C(F)(F)F)c4)cn23)cc1	< 1000	< 25000
CC(C)C(=O)Nc1cn2cc(-c3cnc(N)c(C(F)(F)F)c3)ccc2n1		< 25000
CC(C)(C)OC(=O)N1CCC[C@@H]1C(=O)Nc1cn2nc(-c3cnc(N)c(C(F)(F)F)c3)ccc2n1	< 1000	< 25000
Nc1ncc(-c2ccc3nc(NC(=O)N4CC[C@H]4C(=O)O)cn3c2)cc1C(F)(F)F	< 10000	< 25000
CN(CC(=O)Nc1cn2nc(-c3cnc(N)c(C(F)(F)F)c3)ccc2n1)C(=O)OC(C)(C)C	< 1000	< 10000
CC(=O)Nc1cn2cc(-c3cnc(N)nc3)ccc2n1	< 1000	< 25000
CC(C)(C)OC(=O)N1CC[C@H]1C(=O)Nc1cn2cc(-c3cnc(N)c(C(F)(F)F)c3)ccc2n1	< 1000	< 25000
COCCOc1nc(-c2ccc3nc(NC(=O)COC)cn3c2)cnc1N	< 1000	< 10000
Nc1ncc(-c2ccc3nc(NC(=O)c4ccc(-n5ccnc5)cc4)cn3c2)cc1C(F)(F)F	< 1000	< 10000
Nc1ncc(-c2ccc3nc(NC(=O)CCCO)cn3c2)cc1C(F)(F)F	< 1000	< 10000
CC(=O)Nc1cn2cc(-c3cnc(N)c(C(=O)N4CCCC4)c3)ccc2n1	< 1000	< 25000
CC(=O)Nc1nc2ccc(-c3cnc(N)c(C(F)(F)F)c3)c(F)c2s1	< 1000	< 10000
CC(C)(C)OC(=O)N1CCC1C(=O)Nc1cn2cc(-c3cnc(N)c(OCC(F)(F)F)n3)ccc2n1 (configuration not stated)	< 1000	< 25000
CC(=O)Nc1nc2ccc(-c3cnc(N)c(C(=O)N4CCOCC4)c3)cc2s1	< 1000	< 10000
Nc1ncc(-c2ccc3nc(NC(=O)c4ccc(F)nc4)cn3c2)cc1C(F)(F)F	< 1000	< 25000
Nc1ncc(-c2ccc3nc(NC(=O)COC4CCNCC4)cn3c2)cc1C(F)(F)F	< 1000	< 10000
Nc1ncc(-c2ccc3nc(NC(=O)C4CCC(=O)NC4)cn3c2)cc1C(F)(F)F (configuration not stated)	< 1000	
CC(=O)Nc1cn2nc(-c3cnc(N)c(-c4ccccc4Cl)c3)ccc2n1	< 1000	
CC(=O)Nc1cn2cc(-c3cnc(N)c(OC4CCNCC4)n3)ccc2n1		< 25000
C[C@@H](N)C(=O)Nc1cn2nc(-c3cnc(N)c(C(F)(F)F)c3)ccc2n1	< 1000	< 10000

Structure (SMILES)	IC50 (PIK3CA (human) [1]) [nM]	EC50 (PIK3CA (human) [2]) [nM]
CC(=O)Nc1nc2ccc(-c3ccc(N)nc3)cn2c1Br	< 10000	
Nc1ncc(-c2ccc3nc(NC(=O)[C@@H]4CCC(=O)O4)cn3c2)cc1C(F)(F)F	< 1000	
CC(=O)Nc1cn2cc(-c3cnc(N)c(S(=O)(=O)N4CCC(Oc5ccc(F)cc5)CC4)c3)ccc2n1	< 1000	
NC(=O)[C@@H]1CCCN1C(=O)Nc1cn2cc(-c3cnc(N)c(C(F)(F)F)c3)ccc2n1		< 10000
Nc1cc(C(=O)Nc2nc3ccc(-c4cnc(N)c(C(F)(F)F)c4)cc3s2)ccn1	< 1000	
COc1ccccc1C1CCCN1C(=O)Nc1cn2cc(-c3cnc(N)c(C(F)(F)F)c3)ccc2n1 (configuration not stated)	< 1000	
Nc1ncc(-c2ccc3nc(NC(=O)c4ccccc4C(=O)O)cn3c2)cc1C(F)(F)F	< 10000	
Nc1ncc(-c2ccc3nc(NC(=O)N4CCC[C@H]4C(=O)O)cn3c2)cc1C(F)(F)F	< 10000	
CC(=O)Nc1nc2ccc(-c3ccc(NC4CCOCC4)nc3)cc2s1	< 1000	
CC(=O)Nc1cn2cc(-c3cnc(N)cc3C(F)(F)F)ccc2n1	< 10000	
CC(=O)Nc1nc2ccc(-c3cnc(NC(C)=O)c(C(F)(F)F)c3)cc2s1	< 1000	
COCCOc1nc(-c2ccc3nc(NC(C)=O)cn3n2)cnc1N		< 10000
CC(=O)Nc1cn2cc(-c3cnc(N)c(C(F)(F)F)c3)cc(C)c2n1	≥ 25000	
CC(=O)N1CCCC[C@@H]1C(=O)Nc1cn2cc(-c3cnc(N)c(C(F)(F)F)c3)ccc2n1	< 10000	
CC(=O)Nc1cn2nc(-c3cnc(N)c(OCC(F)(F)F)n3)ccc2n1		< 10000
Nc1ncc(-c2ccc3nc(NC(=O)[C@H]4CCC(=O)O4)cn3c2)cc1C(F)(F)F	< 1000	
Nc1ncc(-c2ccc3nc(NC(=O)C4CCC(=O)N4)cn3c2)cc1C(F)(F)F (configuration not stated)	< 1000	
Nc1ccc(-c2ccc3nc(NC(=O)OCCN4CCCCC4)sc3c2)cn1	< 1000	
COc1ccc(C2CCCN2C(=O)Nc2cn3cc(-c4cnc(N)c(C(F)(F)F)c4)ccc3n2)cc1OC (configuration not stated)	< 1000	
CC(=O)Nc1nc2ccc(-c3cnc(N)c(C(F)(F)F)c3)cn2c1C(C)=O	< 10000	
CC(=O)Nc1cn2cc(-c3cnc(N)c(Oc4ccc(N5CCN(C(C)C)CC5)cc4)n3)ccc2n1	< 1000	
Nc1ncc(-c2ccc3nc(NC(=O)C4CCCC(=O)N4)cn3c2)cc1C(F)(F)F (configuration not stated)	< 1000	
N#CN=C(N)NCCCC(=O)Nc1cn2nc(-c3cnc(N)c(C(F)(F)F)c3)ccc2n1	< 1000	
CCN(CC)CCCc1c(NC(C)=O)nc2ccc(-c3cnc(N)c(C(F)(F)F)c3)cn12	< 10000	
CCN1CCC(Oc2nc(-c3ccc4nc(NC(C)=O)cn4c3)cnc2N)CC1		< 10000

Now from value to molecule:

IC50 (PIK3CA (human) [1]) [nM]	EC50 (PIK3CA (human) [2]) [nM]	Structure (SMILES)
< 1000	< 25000	CC(=O)Nc1cn2cc(-c3cnc(N)c(CN4CCCC4)c3)ccc2n1
< 1000	< 25000	CC(=O)Nc1cn2cc(-c3ccc(N)nc3C)ccc2n1
< 1000	< 10000	CC(=O)Nc1nc2ccc(-c3cnc(N)c(C(F)(F)F)c3)cn2c1C(N)=O
< 1000	< 10000	Nc1ncc(-c2ccc3nc(NC(=O)C4CNC4)cn3n2)cc1C(F)(F)F
< 1000	< 25000	Nc1ncc(-c2ccc3nc(NC(=O)N4CCC(C(=O)O)C4)cn3c2)cc1C(F)(F)F (configuration not stated)
< 1000	< 1000	COCC(=O)Nc1cn2cc(-c3cnc(N)c(OCC(F)(F)F)n3)ccc2n1
< 1000		Nc1ncc(-c2ccc3nc(NC(=O)N4CCCC4c4nccs4)cn3c2)cc1C(F)(F)F (configuration not stated)
< 1000	< 1000	Nc1ncc(-c2ccc3nc(NC(=O)CN4CCCCC4)cn3c2)nc1OCC(F)(F)F
< 1000	< 25000	CC(=O)Nc1cn2nc(-c3cnc(N)c(N4CCOCC4)n3)ccc2n1
< 1000		Nc1ncc(-c2ccc3nc(NC(=O)N4CCCC4c4ccco4)cn3c2)cc1C(F)(F)F (configuration not stated)
< 1000		CC(=O)Nc1cn2cc(-c3cnc(N)c(OC(F)F)c3)ccc2n1
< 1000	< 10000	CC(=O)Nc1nc2ccc(-c3cnc(N)c(C(F)(F)F)c3)cn2c1Cl
< 1000	< 25000	CC(=O)Nc1cn2cc(-c3cnc(N)cc3F)ccc2n1
< 1000	< 25000	CCCNc1ccc(-c2ccc3nc(NC(C)=O)sc3c2)cn1
< 1000		Nc1ncc(-c2ccc3nc(NC(=O)N4CCCC4Cc4ccccn4)cn3c2)cc1C(F)(F)F (configuration not stated)
< 1000	< 1000	CCC(=O)Nc1cn2nc(-c3cnc(N)c(C(F)(F)F)c3)ccc2n1
< 1000	< 10000	Nc1ncc(-c2ccc3nc(NC(=O)c4ccc(N5CCNCC5)nc4)cn3c2)cc1C(F)(F)F
< 1000	< 1000	CC(=O)Nc1cn2cc(-c3cnc(N)c(OC4CCC4)n3)ccc2n1
< 1000	< 1000	CC(=O)Nc1nc2ccc(-c3cnc(N)c(C(F)(F)F)c3)cn2c1C#Cc1ccncc1
< 1000	< 25000	CC(C)(C)OC(=O)N1CCC[C@H]1C(=O)Nc1cn2nc(-c3cnc(N)c(C(F)(F)F)c3)ccc2n1

IC50 (PIK3CA (human) [1]) [nM]	EC50 (PIK3CA (human) [2]) [nM]	Structure (SMILES)
< 1000		CC(=O)Nc1nc2ccc(-c3ccc(NC4CCNCC4)nc3)cc2s1
< 1000	< 1000	CC(=O)Nc1cn2cc(-c3cnc(N)c(-c4ccc(OC(F)(F)F)cc4)c3)ccc2n1
< 1000	< 10000	CCN(CC)CC#Cc1c(NC(C)=O)nc2ccc(-c3cnc(N)c(C(F)(F)F)c3)cn12
< 1000	< 25000	Cc1ccc(C2CCCN2C(=O)Nc2cn3cc(-c4cnc(N)c(C(F)(F)F)c4)ccc3n2)s1 (configuration not stated)
< 1000	< 10000	N#Cc1cccc(C(=O)Nc2cn3cc(-c4cnc(N)c(C(F)(F)F)c4)ccc3n2)c1
< 25000	< 10000	Nc1ncc(-c2ccc3nc(NC(=O)[C@@H]4CCCN4)cn3c2)cc1C(F)(F)F
< 1000	< 10000	CCOCC(=O)Nc1cn2nc(-c3cnc(N)c(C(F)(F)F)c3)ccc2n1
< 1000		Nc1ncc(-c2ccc3nc(NC(=O)[C@@H](O)CCC(=O)O)cn3c2)cc1C(F)(F)F
	< 25000	CC(=O)N1CCCC[C@H]1C(=O)Nc1cn2cc(-c3cnc(N)c(C(F)(F)F)c3)ccc2n1
< 1000		CC(=O)Nc1cn2cc(-c3cnc(N)c(Oc4cccc(F)c4)n3)cc(F)c2n1
	< 25000	CC(C)(C)OC(=O)N1CCC1C(=O)Nc1cn2nc(-c3cnc(N)c(C(F)(F)F)c3)ccc2n1 (configuration not stated)
	< 10000	Nc1ncc(-c2ccc3nc(NC(=O)[C@@H]4CCCCN4)cn3c2)cc1C(F)(F)F
< 1000		CC(=O)Nc1cn2cc(-c3cnc(N)c(O[C@@H](C)C(F)(F)F)n3)cc(F)c2n1
≥ 25000		CC(=O)Nc1cn2c(-c3cnc(N)c(C(F)(F)F)c3)c(-c3cnc(N)c(C(F)(F)F)c3)ccc2n1
< 10000		Nc1cccc(C(=O)Nc2nc3ccc(-c4cnc(N)c(C(F)(F)F)c4)cc3s2)n1
< 1000		Nc1ncc(-c2ccc3nc(NC(=O)c4cccc(-c5nn[nH]n5)c4)cn3c2)cc1C(F)(F)F
	< 25000	CNC(=O)[C@@H]1CCCN1C(=O)Nc1cn2cc(-c3cnc(N)c(C(F)(F)F)c3)ccc2n1
< 1000		CC(=O)Nc1cn2cc(-c3cnc(N)c(O[C@H](C)C(F)(F)F)n3)cc(F)c2n1
< 10000		CC(=O)Nc1cn2cc(-c3cnc(N)nc3N)ccc2n1

Source: the Kinase Knowledgebase extract (Sharma et al. 2016)
